# Data taken from PMC3740188 (Protein & cell, 2013).
# Tests used:
# Format in all cases: binding
# [1] = biological target: T1, AT cpn-β (thermosome cpn-β) (Acidianus tengchongensis, UniProt Q877H2); assay: cryo-EM reconstruction with MDFF model; conditions: pH 7.5, 12 mM Mg, 50 mM KCl; 6.2/5.0 Å resolution
# T1 sequence (Q877H2 1-553): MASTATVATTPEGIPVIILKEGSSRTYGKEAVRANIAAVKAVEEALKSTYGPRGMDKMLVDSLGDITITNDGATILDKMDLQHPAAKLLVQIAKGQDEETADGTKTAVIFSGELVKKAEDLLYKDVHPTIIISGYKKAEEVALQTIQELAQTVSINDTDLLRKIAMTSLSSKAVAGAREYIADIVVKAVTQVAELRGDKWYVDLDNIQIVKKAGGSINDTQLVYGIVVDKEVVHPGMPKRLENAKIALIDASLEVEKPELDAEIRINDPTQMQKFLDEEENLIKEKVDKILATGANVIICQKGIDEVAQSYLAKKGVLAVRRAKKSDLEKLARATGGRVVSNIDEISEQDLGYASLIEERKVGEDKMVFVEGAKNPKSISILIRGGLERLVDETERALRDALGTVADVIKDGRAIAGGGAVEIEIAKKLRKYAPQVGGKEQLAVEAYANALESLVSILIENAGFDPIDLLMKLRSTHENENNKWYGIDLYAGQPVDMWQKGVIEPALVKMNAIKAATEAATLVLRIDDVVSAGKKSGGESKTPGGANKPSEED
# [2] = biological target: T2, AT cpn-α (thermosome cpn-α) (Acidianus tengchongensis, UniProt Q877H0); assay: nucleotide-induced oligomer assembly by native PAGE; conditions: 2 mM nucleotide, 20 mM MgCl2, pH 7.5, 37 °C, 8 h
# T2 sequence (Q877H0 1-563): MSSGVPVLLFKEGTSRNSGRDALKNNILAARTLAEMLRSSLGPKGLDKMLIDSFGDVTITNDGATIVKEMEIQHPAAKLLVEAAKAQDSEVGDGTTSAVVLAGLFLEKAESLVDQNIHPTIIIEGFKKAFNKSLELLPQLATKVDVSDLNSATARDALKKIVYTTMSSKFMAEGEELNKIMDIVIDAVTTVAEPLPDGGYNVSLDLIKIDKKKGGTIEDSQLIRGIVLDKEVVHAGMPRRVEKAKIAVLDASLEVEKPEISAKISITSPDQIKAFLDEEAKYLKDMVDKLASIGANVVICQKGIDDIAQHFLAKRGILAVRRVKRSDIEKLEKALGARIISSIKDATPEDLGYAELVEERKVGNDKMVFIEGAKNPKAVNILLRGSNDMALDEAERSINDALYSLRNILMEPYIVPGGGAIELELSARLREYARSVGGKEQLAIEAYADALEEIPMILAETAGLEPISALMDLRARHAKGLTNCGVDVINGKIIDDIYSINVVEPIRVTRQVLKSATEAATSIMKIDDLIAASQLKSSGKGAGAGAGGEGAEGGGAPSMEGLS
# [3] = biological target: T1, AT cpn-β (thermosome cpn-β); assay: as above; conditions: 2 mM nucleotide, 20 mM MgCl2, pH 7.5, 37 °C, 8 h
# [4] = biological target: T1, AT cpn-β (thermosome cpn-β); assay: heating […] min then native PAGE of oligomer dissociation; conditions: ADP in place of ATP; pH 7.5, MgCl2
# [5] = biological target: T2, AT cpn-α (thermosome cpn-α); assay: as above; conditions: ADP in place of ATP; pH 7.5, MgCl2
Compound,cryo-EM reconstruction with MDFF model [1],nucleotide-induced oligomer assembly by native PAGE [2],nucleotide-induced oligomer assembly by native PAGE [3],Td [4],Td [5]
Nc1ncnc2c1ncn2[C@@H]1O[C@H](COP(=O)(O)OP(=O)(O)OP(=O)(O)O)[C@@H](O)[C@H]1O [ATP],cryoEM reconstructions of cpn-β in the apo or ATP-binding state,,,,
Nc1ncnc2c1ncn2[C@@H]1O[C@H](COP(=O)(O)OP(=O)(O)NP(=O)(O)O)[C@@H](O)[C@H]1O [AMP-PNP],,all nucleotides could efficiently induce the assembly of thermosomes for both cpn-α,all nucleotides could efficiently induce the assembly of thermosomes for both cpn-α,,
Nc1nc2c(ncn2[C@@H]2O[C@H](COP(=O)(O)OP(=O)(O)OP(=O)(O)O)[C@@H](O)[C@H]2O)c(=O)[nH]1 [GTP],,even GTP could induce the assembly of thermosomes,even GTP could induce the assembly of thermosomes,,
Nc1ncnc2c1ncn2[C@@H]1O[C@H](COP(=O)(O)OP(=O)(O)O)[C@@H](O)[C@H]1O [ADP],,,,ADP binding also increased the thermal stability of cpn-α and cpn-β,ADP binding also increased the thermal stability of cpn-α and cpn-β
